According to patent US10654883B2, “Inorganic salts of nicotinic acid mononucleotide as anti-aging agents” (Jumpstart Fertility Pty Ltd, priority 2018, dated 2020):

Columns and labels:
COV434 cells = experiment: NAD cell assay (NAD cycling method) in COV434 cells; assay type: cell-based, human; conditions: 200 uM, 4 hr; for Fold increase compared to NaMN (NAD level): NAD normalised to protein
Description: NAD levels were assayed based on the NAD cycling method of Zhu and Rand, PLoS One (2012), herein incorporated by reference. COV434 cells were maintained in 6 well plates and treated with the indicated compounds at a concentration of 200 uM for 4 hr. Media was removed, plates were washed in cold PBS and cells were scraped down in NAD extraction buffer containing 10 mM nicotinamide, 50 mM Tris HCl, 0.1% Triton X-100. Cells were homogenised by sonication for 5 seconds, and samples were centrifuged at 7,000 g for 5 min at 4 degrees. Aliquots were taken for later protein assay, and samples were then passed through 10 kDa amicon filters at 14,000 g, 30 min at 4 degrees to remove proteins from the sample. Each sample was measured in technical triplicate, with 25 μL sample added to 100 μL ADH cycling mix (0.2 mg/ml alcohol dehydrogenase enzyme, 2% ethanol, 100 mM Tris pH 8.5). Samples were allowed to cycle for 10 min at room temperature, followed by 50 μL addition of an MTT/PMS solution (0.1 mM phenazine methosulfate, 0.8 mM 3-(4,5-Dimethylthiazol-2-yl)-2,5-diphenyltetrazoliwn bromide), 100 mM Tris-HCl pH 8.5). Plates were then incubated for 15 min and absorbance was measured at 570 nm. NAD concentrations were extrapolated from a standard curve, and normalised to protein concentrations determined by BCA protein assay.

[1] = Solution stability in aqueous solution (D2O), degradation measured by 1H-NMR
Description: Three separate 5 mg samples of the same batch of NaMN were completely dissolved without stirring in 0.5 ml of deuterated water (D2O), each in three separate NMR tubes. All three samples were analysed at the time of dissolution via ^1H-NMR for purity.
The first NMR tube was maintained at a temperature of 25° C. The second NMR tube was maintained at a temperature of 40° C. The third NMR tube was maintained at a temperature of 60° C. Degradation of the control NaMN was measured using ^1H-NMR. Degradation of the control NaMN in aqueous solutions was analyzed over a period of 36 weeks (see FIG. 1).
The stability of the salts I-001, I-002, I-003, and I-004 in aqueous solution phase was also tested. Following the same procedure described in the control NaMN, the respective solutions of I-001, I-002, I-003, and I-004 were maintained at 25° C. and analysed for 38 weeks.

| SMILES | Fold increase compared to NaMN (NAD level) (COV434 cells) | Fold Increase compared to NaMN on a molar basis (NAD level) (COV434 cells) | degradation in aqueous solution ([1]; 7 weeks, 10 mg/mL) | degradation in aqueous solution ([1]; 38 weeks, 10 mg/mL) | degradation in aqueous solution ([1]; 24 weeks, 10 mg/mL) | degradation in aqueous solution ([1]; 34 weeks, 10 mg/mL) | degradation in aqueous solution ([1]; 25° C., week 10, D2O, 1H-NMR) | degradation in aqueous solution ([1]; 40° C., week 2, D2O, 1H-NMR, study halted) | degradation in aqueous solution ([1]; 60° C., after a week, D2O, 1H-NMR, study halted) |
| --- | --- | --- | --- | --- | --- | --- | --- | --- | --- |
| O=C([O-])c1ccc[n+]([C@@H]2O[C@H](COP(=O)([O-])O)[C@@H](O)[C@H]2O)c1.[Na+] [Compound I-001, Sodium 1-((2R,3R,4S,5R)-5-(((hydrogenphosphonato)oxy)methyl)-3,4-dihydroxytetrahydrofuran-2-yl)pyridine-1-ium-3-carboxylate] | 3.0 | 3.23 | under 2% | 4.3% | – | – | – | – | – |
| O=C([O-])c1ccc[n+]([C@@H]2O[C@H](COP(=O)([O-])O)[C@@H](O)[C@H]2O)c1.[K+] [Compound I-002, Potassium 1-((2R,3R,4S,5R)-5-(((hydrogenphosphonato)oxy)methyl)-3,4-dihydroxytetrahydrofuran-2-yl)pyridine-1-ium-3-carboxylate] | 0.8 | 0.84 | under 2% | – | 4.7% | – | – | – | – |
| O=C([O-])c1ccc[n+]([C@@H]2O[C@H](COP(=O)([O-])[O-])[C@@H](O)[C@H]2O)c1.[Na+].[Na+] [Compound I-003, Sodium 1-((2R,3R,4S,5R)-3,4-dihydroxy-5-((phosphonatooxy)methyl)-tetrahydrofuran-2-yl)pyridine-1-ium-3-carboxylate] | 1.0 | 1.08 | under 2% | – | – | – | – | – | – |
| O=C([O-])c1ccc[n+]([C@@H]2O[C@H](COP(=O)([O-])[O-])[C@@H](O)[C@H]2O)c1.[K+].[K+] [Compound I-004, Potassium 1-((2R,3R,4S,5R)-3,4-dihydroxy-5-((phosphonatooxy)methyl)-tetrahydrofuran-2-yl)pyridine-1-ium-3-carboxylate] | 1.3 | 1.57 | under 2% | – | – | 2.6% | – | – | – |
| O=C([O-])c1ccc[n+]([C@@H]2O[C@H](COP(=O)([O-])[O-])[C@@H](O)[C@H]2O)c1.[K+].[Na+] [Compound I-006, Potassium sodium 1-((2R,3R,4S,5R)-3,4-dihydroxy-5-((phosphonatooxy)methyl)tetrahydrofuran-2-yl)pyridine-1-ium-3-carboxylate] | 2.3 | 2.72 | – | – | – | – | – | – | – |
| CC(=O)O[C@@H]1[C@H](OC(C)=O)[C@@H](COP(=O)([O-])O)O[C@H]1[n+]1cccc(C(=O)[O-])c1.[Na+] [Compound I-008, Sodium 1-((2R,3R, 4R, 5R)-3,4-diacetoxy-5-(((hydrogenphosphonato)oxy)methyl)tetrahydrofuran-2-yl)pyridine-1-ium-3-carboxylate] | 0.8 | 0.99 | – | – | – | – | – | – | – |
| CC(=O)O[C@@H]1[C@H](OC(C)=O)[C@@H](COP(=O)([O-])O)O[C@H]1[n+]1cccc(C(=O)[O-])c1.[K+] [Compound I-009, potassium 1-((2R,3R, 4R, 5R)-3,4-diacetoxy-5-(((hydrogenphosphonato)oxy)methyl)tetrahydrofuran-2-yl)pyridine-1-ium-3-carboxylate] | 1.0 | 1.39 | – | – | – | – | – | – | – |
| O=C(O)c1ccc[n+]([C@@H]2O[C@H](COP(=O)(O)O)[C@@H](O)[C@H]2O)c1 [NaMN, nicotinic acid mononucleotide] | 1.0 | 1.0 | – | – | – | – | about 12.3% | 15.3% | 35% |
